Experimental data published in patent publication US20250041286A1, “CANCER TREATMENT USING KETOTIFEN IN COMBINATION WITH A CHECKPOINT INHIBITOR” (Materia Therapeutics Inc., priority 2021, published 2025).
Entries after “also recorded” stand apart in the source; their conditions may differ.

How the values were obtained:
Format in all cases: in vivo, mouse
CD117 protein = experiment: Western blot against CD117 protein (mast cell number) in tumors; conditions: subtherapeutic doses of ketotifen
K7M2wt tumors [1] = experiment: qPCR mRNA expression levels in tumors; conditions: 10 mg/kg ketotifen, compared with the effect in MCA205
Method: Total RNA was isolated from breast tumors according to the standard Trizol-based protocol (Invitrogen), and cDNA synthesis was performed using reverse transcriptase III (RT-III) enzyme and random hexamers (Invitrogen). Real-time polymerase chain reaction was performed using Sybr Fast Universal Master Mix (KAPA). Reactions were performed using a CFX-96 real-time PCR detection system (BioRad) at the following conditions: 95° C. for 2 minutes, 95° C. for 2 seconds, 60° C. for 20 seconds, 60° C. for 1 second, steps 2-4 for 39 cycles. Real-time PCR analysis and calculation of changes in gene expression between compared groups was performed using the ΔΔ^Ct method. Relative gene expression was normalized based on the expression of β-actin. For qPCR analysis, 3-5 biological samples were used per treatment and 3 technical replicates for each sample.
mRNA expression levels were evaluated in both mouse sarcoma models by qPCR, as described above.

K7M2wt tumors [2] = experiment: Ultrasound shear wave elastography of tumor stiffness; conditions: 10 mg/kg daily ketotifen
Method: (§1) The mechanotherapeutic potential of ketotifen in reducing matrix stiffness was primarily assessed non-invasively and longitudinally using ultrasound elastography. Briefly, assessment of tumor elastic modulus was […] via shear wave elastography using a Philips EPIQ Elite Ultrasound scanner with an eL18-4 linear array, approved for clinical scanning was performed as described in previous study. Elastic modulus values of the areas of the region of interest (ROI) with the highest shear wave quality were obtained. The elastic modulus value presented is the average within the tumor region. Shear wave imaging of MCA205 tumors was performed prior to ketotifen treatment on day 7, to determine baseline level of tumor stiffness, after three days of treatment (day 11), and on the last day of treatment just before tumor removal (day 15). Ultrasound imaging of K7M2wt tumors was performed on day 24, 28, and 31. The effect of ketotifen on chemo-immunotherapy combination with regards to MCA205 tissue elasticity was assessed on day 7 before the first cycle of doxorubicin+anti-PD-L1 treatment, one day after second cycle (day 11) and two days after the last cycle (day 15). Ultrasound imaging of K7M2wt tumors was performed on day 22 (i.e., four days post daily ketotifen and before first cycle of combination treatment) and upon completion of treatment (day 32).

MCA205 tumors [3] = experiment: as above; conditions: 10 mg/kg daily ketotifen, dose that reduced stiffness the most
Method: as §1

K7M2wt tumors [4] = experiment: Hyaluronan evaluation, HABP1 immunofluorescence; conditions: daily ketotifen 10 mg/kg
Method: (§2) Besides collagen, other structural components of tumor stroma can exert pressure and deform vessels. Such an example is the hyaluronan (e.g., hyaluronic acid), which binds to and retains excessive fluid generating gel-like regions within the tissue. Therefore, hyaluronic acid staining was performed in both sarcoma mouse models.
(§3) Tumors were removed from mice, washed twice in 1×PBS for 10 min, and incubated with 4% PFA overnight at 4° C. The fixative was aspirated, and samples were washed twice in 1×PBS for 10 min. Tissue samples were dehydrated in successive ethanol steps and xylene followed by paraffin embedding. Serial sections ([…]) of paraffin-embedded tissues were produced using the microtome (Accu-Cut SRM 200 Rotary Microtome, SAKURA), flattened out into water, and allowed to dry overnight at 37° C. Sections were then deparaffinized and rehydrated as routinely processed for histology. Tissue sections were subjected to antigen retrieval (microwave heat treatment with TriSodium Citrate, pH 6, for 20 min), washed with 1×TBS/0.025% Triton X-100 (TBS-T), and incubated in blocking solution (2% BSA, 0.2% Triton 100×) for 2 hours at room temperature. […] Hyaluronan was detected following incubation with streptavidin-FITC conjugate (Invitrogen, 1:1000) and nuclei were stained with DAPI stain at room temperature for 1 hour in the dark. […]

MCA205 tumors [5] = experiment: Hyaluronan evaluation, HABP1 immunofluorescence; conditions: daily ketotifen 10 mg/kg
Method: as §2, §3

MCA205 tumors [6] = experiment: Flow cytometry of tumor-infiltrating lymphocytes and myeloid cells; conditions: CD11b / Gr-1 flow cytometry
Method: On day 16 of the doxorubicin-anti-PD-L1 combination study (e.g., the study outlined in FIG. 8A), MCA205 tumors were harvested in 1×HBSS (Biosera), minced to fine fragments, and incubated with 1 mg/mL Collagenase D and 0.5 mg/ml DNase I (Roche) in a 37° C. shaker for 30 minutes. Enzymatic digestion was ceased by the addition of RPMI media containing 10% FBS and 1% antibiotic/antimycotic solution. The tissue homogenates were then filtered through 40 μm cell strainers. Red blood cells were removed by ACK Lysing buffer (A1049201, Gibco) and single cell suspensions were collected and used to a final concentration 1×10^6 cells per sample. Cells were then incubated with fixable viability dye (eBioscience, 1:1000) for 10 minutes on ice for gating of viable cells. Non-specific antibody binding was blocked following incubation with the rat anti-mouse CD16/CD32 mAb (BD Bioscience) for 20 minutes on ice. […]
Foxp3-AF488 (BD Bioscience) staining was performed following fixation and permeabilization process using the Foxp3/Transcription Factor Staining Buffer Set (00-5523-00, eBioscience). […] Flow cytometry data were obtained using BD FACSLyric flow cytometer and analyzed using BD FACSuite™ Software. […]

CN1CCC(=C2c3ccccc3CC(=O)c3sccc32)CC1 [ketotifen]
mast cell (MC) number as determined by CD117 protein levels (CD117 protein): remain unaffected | mRNA levels of Col1A1, CTGF, Has2, Has3 (K7M2wt tumors [1]): A similar effect was observed | tissue stiffness (Young's modulus) (K7M2wt tumors [2]): similarly benefited | Young's modulus (tissue stiffness) (MCA205 tumors [3]): 20 kPa | expression of hyaluronan protein (HABP1 staining) (K7M2wt tumors [4]): reduced | expression of hyaluronan protein (HABP1 staining) (MCA205 tumors [5]): reduced | recruitment of immunosuppressive cell populations (MDSCs) (MCA205 tumors [6]): reducing the recruitment of immunosuppressive cell populations; also recorded: decreasing the polarization of immature myeloid cell population into MDSCs
